Assay results reported in ChEMBL document CHEMBL1201862, “PubChem BioAssay data set” (2004).
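These data come from cells grown in 96-well plates and exposed to compound for 48 hours at five concentrations. At the GI50, growth is halved.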 Active and inactive are the calls of the source. Cut-off read from the data, not from the text of the source: active = GI50 up to about 1.1 µM and inactive = higher.

Legend:
Assay in all cases: NCI anticancer screen, dose series, 48 h
[1] = system: HCT-15
[2] = system: SF-539
[3] = system: U-251
[4] = system: TK-10
[5] = system: RPMI-8226
[6] = system: NCI/ADR-RES
[7] = system: CCRF-CEM
[8] = system: MDA-MB-231
[9] = system: HL-60
[10] = system: UACC-62
[11] = system: SNB-19
[12] = system: NCI-H460
[13] = system: SN12C
[14] = system: SF-295
[15] = system: SW-620
[16] = system: HCT-116
[17] = system: SR
[18] = system: NCI-H522
[19] = system: PC-3
[20] = system: COLO 205
[21] = system: Malme-3M
[22] = system: HT-29
[23] = system: A498
[24] = system: LOX IMVI
[25] = system: MOLT-4
[26] = system: MDA-MB-435
[27] = system: SK-MEL-5
[28] = system: ACHN
[29] = system: SK-MEL-2
[30] = system: BT-549
[31] = system: M14
[32] = system: OVCAR-8
[33] = system: DU-145
[34] = system: K562
[35] = system: HOP-92
[36] = system: SNB-75
[37] = system: UO-31
[38] = system: T47D
[39] = system: OVCAR-4
[40] = system: CAKI-1
[41] = system: RXF 393
[42] = system: UACC-257
[43] = system: OVCAR-3
[44] = system: IGROV-1
[45] = system: MCF7
[46] = system: SK-OV-3
[47] = system: EKVX
[48] = system: OVCAR-5
[49] = system: 786-0
[50] = system: KM12
[51] = system: HCC 2998
[52] = system: NCI-H23
[53] = system: Hs-578T
[54] = system: NCI-H226
[55] = system: SK-MEL-28
[56] = system: SF-268
[57] = system: A549
[58] = system: HOP-62
[59] = system: MDA-N

COC1=CC(=O)C[C@@H](C)[C@]12Oc1c(Cl)c(OC)cc(OC)c1C2=O [GRISEOFULVIN]
GI50 [1]: 22.8 µM | GI50 [2]: 14.6 µM (inactive) | GI50 [3]: 27.7 µM (inactive) | GI50 [4]: > 85.1 µM (inactive) | GI50 [5]: 19.4 µM (inactive) | GI50 [6]: 12.3 µM (inactive) | GI50 [7]: 33.3 µM (inactive) | GI50 [8]: 6.41 µM (inactive) | GI50 [9]: 6.7 µM (inactive) | GI50 [10]: 18.6 µM (inactive) | GI50 [11]: 35.2 µM (inactive) | GI50 [12]: 28 µM (inactive) | GI50 [13]: 40.5 µM (inactive) | GI50 [14]: 21.8 µM (inactive) | GI50 [15]: 7.62 µM (inactive) | GI50 [16]: 11.8 µM (inactive) | GI50 [17]: 7.48 µM (inactive) | GI50 [18]: 8.11 µM (inactive) | GI50 [19]: 10.8 µM (inactive) | GI50 [20]: 9.89 µM (inactive) | GI50 [21]: 76.4 µM (inactive) | GI50 [22]: 16.8 µM (inactive) | GI50 [23]: > 47.2 µM (inactive) | GI50 [24]: 18.7 µM (inactive) | GI50 [25]: 39.9 µM (inactive) | GI50 [26]: 2.42 µM (inactive) | GI50 [27]: 7.62 µM (inactive) | GI50 [28]: 67.3 µM (inactive) | GI50 [29]: > 71.6 µM (inactive) | GI50 [30]: > 39.5 µM (inactive) | GI50 [31]: 9.48 µM (inactive) | GI50 [32]: 30.1 µM (inactive) | GI50 [33]: 39.7 µM (inactive) | GI50 [34]: 3.47 µM (inactive) | GI50 [35]: > 34.3 µM (inactive) | GI50 [36]: 4.5 µM (inactive) | GI50 [37]: 43.7 µM (inactive) | GI50 [38]: 38.2 µM (inactive) | GI50 [39]: 38.2 µM (inactive) | GI50 [40]: 9.53 µM (inactive) | GI50 [41]: 10.5 µM (inactive) | GI50 [42]: > 20.5 µM (inactive) | GI50 [43]: 37.3 µM (inactive) | GI50 [44]: 17.4 µM (inactive) | GI50 [45]: 9.62 µM (inactive) | GI50 [46]: 35.4 µM (inactive) | GI50 [47]: > 100 µM (inactive) | GI50 [48]: > 91.6 µM (inactive) | GI50 [49]: 50.1 µM (inactive) | GI50 [50]: 6.04 µM (inactive) | GI50 [51]: 17.2 µM (inactive) | GI50 [52]: 42.1 µM (inactive) | GI50 [53]: 11.9 µM (inactive) | GI50 [54]: 52.8 µM (inactive) | GI50 [55]: 99.3 µM (inactive) | GI50 [56]: > 68.9 µM (inactive) | GI50 [57]: 63.5 µM (inactive) | GI50 [58]: 49.9 µM (inactive)

CCCCCCCC(=O)NC(C)(C)C(=O)NCC(=O)NC(CC(C)C)C(=O)NC(C)(C)C(=O)NCC(=O)NCC(=O)NC(CC(C)C)C(=O)NC(C)(C)C(=O)NCC(=O)NC(C(=O)NC(CO)CC(C)C)C(C)CC (stereo not drawn)
GI50 [1]: 4.86 µM | GI50 [3]: 2.39 µM (inactive) | GI50 [4]: 4.66 µM (inactive) | GI50 [5]: 0.935 µM (active) | GI50 [6]: 4.83 µM (inactive) | GI50 [7]: 4.26 µM (inactive) | GI50 [8]: 4 µM (inactive) | GI50 [10]: 4.14 µM (inactive) | GI50 [11]: 3.57 µM (inactive) | GI50 [12]: 4.48 µM (inactive) | GI50 [13]: 4.28 µM (inactive) | GI50 [14]: 4.26 µM (inactive) | GI50 [15]: 4.02 µM (inactive) | GI50 [16]: 3.78 µM (inactive) | GI50 [17]: 3.99 µM (inactive) | GI50 [18]: 3.87 µM (inactive) | GI50 [19]: 3.77 µM (inactive) | GI50 [20]: 3.81 µM (inactive) | GI50 [21]: 4.82 µM (inactive) | GI50 [22]: 4.05 µM (inactive) | GI50 [24]: 3.53 µM (inactive) | GI50 [25]: 3.73 µM (inactive) | GI50 [26]: 3.94 µM (inactive) | GI50 [59]: 4 µM (inactive) | GI50 [27]: 3.85 µM (inactive) | GI50 [28]: 5 µM (inactive) | GI50 [29]: 2.82 µM (inactive) | GI50 [30]: 3.59 µM (inactive) | GI50 [31]: 4.21 µM (inactive) | GI50 [32]: 4.21 µM (inactive) | GI50 [33]: 4.55 µM (inactive) | GI50 [34]: 3.21 µM (inactive) | GI50 [35]: 3.15 µM (inactive) | GI50 [36]: 3.64 µM (inactive) | GI50 [37]: 4.3 µM (inactive) | GI50 [38]: 3.14 µM (inactive) | GI50 [39]: 4.01 µM (inactive) | GI50 [40]: 4.12 µM (inactive) | GI50 [41]: 4.05 µM (inactive) | GI50 [42]: 4.41 µM (inactive) | GI50 [43]: 3.11 µM (inactive) | GI50 [44]: 3.84 µM (inactive) | GI50 [46]: 4.2 µM (inactive) | GI50 [47]: 3.63 µM (inactive) | GI50 [48]: 3.66 µM (inactive) | GI50 [49]: 4.61 µM (inactive) | GI50 [50]: 1.41 µM (inactive) | GI50 [51]: 4.29 µM (inactive) | GI50 [52]: 3.93 µM (inactive) | GI50 [53]: 4.42 µM (inactive) | GI50 [54]: 4.5 µM (inactive) | GI50 [55]: 3.72 µM (inactive) | GI50 [56]: 4.11 µM (inactive) | GI50 [57]: 4.36 µM (inactive) | GI50 [58]: 4.28 µM (inactive)
